Laboratory results as given in the NIST ThermoML archive (doi:10.1016/j.jct.2011.01.014).

Test: xn = mol fraction of the nth substance listed
Details: 101 kPa, Liquid; for speed of sound: sound velocity cell; for mass density: Vibrating tube method

CC(=O)[O-].[NH3+]CCO [2-hydroxyethylammonium acetate] + CO
Details	mass density, 308.15 K [kg/m3]	mass density, 310.65 K [kg/m3]	mass density, 313.15 K [kg/m3]	mass density, 315.65 K [kg/m3]	speed of sound, 305.65 K [m/s]	speed of sound, 308.15 K [m/s]	speed of sound, 310.65 K [m/s]	speed of sound, 313.15 K [m/s]
x1 = 0.0492	832.793	830.575	828.348	826.113	1161.1	1153.3	1145.6	1137.8
x1 = 0.0951	875.068	872.975	870.876	868.768	1224.5	1217	1209.6	1202.1
x1 = 0.1987	943.548	941.654	939.757	937.855	1341	1334	1327	1320
x1 = 0.29	988.497	986.73	984.961	983.188	1429.3	1422.7	1416	1409.3
x1 = 0.3786	1021.52	1019.84	1018.17	1016.49	1500.3	1494	1487.6	1481.3
x1 = 0.4825	1053.6	1052.01	1050.42	1048.81	1575.7	1569.6	1563.5	1557.5
x1 = 0.6007	1081.57	1080.07	1078.57	–	1645.1	1639.2	1633.3	1627.4
x1 = 0.6711	1095.97	1094.53	1093.07	–	1681.8	1675.9	1670.1	1664.3
x1 = 0.7797	1114.95	1113.51	1112.05	–	1700.1	1694.5	1689	1683.4
x1 = 0.8297	1122.74	1121.32	1119.91	–	1753.7	1748	1742.3	1736.7
x1 = 0.9328	1136.52	1135.08	1133.64	–	1750.5	1744.9	1739.3	1733.8
x1 = 1	1143.39	1141.96	1140.55	–	1773.4	1767.9	1762.5	1757.2
